Consider 12 compounds from patent US20250326708A1, “LONG-ACTING SPLEEN-TARGETING CATIONIC LIPID COMPOUND COMPRISING BENZENE RING STRUCTURE, COMPOSITION COMPRISING SAME, AND USE THEREOF” (Beijing Youcarekechuang Pharmaceutical Technology Co., Ltd., priority 2024, published 2025).

The nature of data set [1]: Particle size and polydispersity index (PDI) of lipid nanoparticles, dynamic light scattering. Particulars: LNP preparation with the named cationic lipid; 90° scattering angle, 25° C. It counts as physicochemical. An excerpt:
(§1) The cationic lipids listed in Table 2 were each mixed with DSPC (AVT (Shanghai) Pharmaceutical Technology Co., Ltd.), cholesterol (AVT (Shanghai) Pharmaceutical Technology Co., Ltd.), and DMG-PEG2000 in a molar ratio of 49:10:39.5:1.5 and dissolved in ethanol to prepare ethanol lipid solutions. Using the ethanol injection method, the ethanol lipid solutions were quickly added to a citrate buffer (pH between 4 and 5), and vortexed for 30 seconds for later use. eGFP-mRNA (purchased from Shanghai BioHub Biotechnology Co., Ltd.), Fluc-mRNA (purchased from Shanghai BioHub Biotechnology Co., Ltd.), or Cy5 fluorescently labeled Leqvio (purchased from Sangon Biotech (Shanghai) Co., Ltd.) was diluted in a citrate buffer (pH between 4 and 5) to obtain an mRNA aqueous solution. A certain volume of the lipid solution and the mRNA aqueous solution were mixed to prepare liposomes at a total lipid-to-mRNA weight ratio of 15:1. The mixtures were sonicated at 25° C. for 15 minutes (ultrasonic frequency: 40 kHz, ultrasonic power: 800 W). The resulting liposomes were diluted 10-fold with PBS, followed by ultrafiltration using a 300 kDa ultrafiltration tube to remove ethanol. After adjusting the volume with PBS, LNP preparations encapsulating eGFP-mRNA or Fluc-mRNA were obtained, using cationic lipids, DSPC, cholesterol, and DMG-PEG2000 at a molar ratio of 49:10:39.5:1.5.
The particle size and polydispersity index (PDI) were measured using dynamic light scattering with a Malvern laser diffraction particle size analyzer.
10 μL of liposome solution was diluted to 1 mL with RNase-free deionized water and added to the sample cell. Each sample was measured three times. The measurement conditions were as follows: 90° scattering angle, 25° C.

For data set [2], the system named is 293T cells. The experiment in a line: Fluorescence detection of Fluc-mRNA (transfection efficiency) of LNP preparations. Type of data set: cell-based. Particulars: for Relative light unit (RLU): LNP with 0.3 μg Fluc-mRNA, 96-well plate, 24 hours. As to the method:
(§2) Cell recovery and passage: 293T cells were recovered and cultured in culture dishes. The cells were passaged until the required number of cells was obtained.
(§3) Seeding plates: The cells in culture dishes were digested and counted, then seeded in a 96-well plate at 10,000 cells per well and seeded in a 12-well plate at 150,000 cells per well. The cells were cultured overnight until cell adhesion.
as §1
(§4) Cell recovery and passage: The method was the same as described in Example 3.
(§5) Seeding plates: The method was the same as described in Example 3.
LNP preparations containing 0.3 μg of Fluc-mRNA (with the vector components of the LNP preparations of cationic lipids, DSPC, cholesterol, and DMG-PEG2000 in a molar ratio of 49:10:39.5:1.5, where the cationic lipids are those listed in Table 1) were added to the cell culture medium in a 96-well plate. After 24 hours of continued culture, the corresponding reagents were added according to the instructions in the Gaussia Luciferase Assay Kit. Fluorescence intensity in each well was detected using the IVIS fluorescence detection system. The transfection efficiency of LNP preparations prepared with a series of cationic lipid compounds designed in the present disclosure, as well as cationic lipids from the prior art, including SM-102, HHMA, MC3, compound 7, and I-1, is shown in Table 4.

Data set [3] relates to 293T cells. The experiment in a line: Cell viability assay (CCK-8) with LNP preparations of Fluc-mRNA. Type of data set: cell-based. Particulars: LNP with 1.5 μg Fluc-mRNA, 24 hours, CCK-8. As to the method:
as §2, §3, §1, §4, §5
LNP preparations containing 1.5 μg of Fluc-mRNA (with the vector components of the LNP preparations of cationic lipids, DSPC, cholesterol, and DMG-PEG2000 in a molar ratio of 49:10:39.5:1.5, where the cationic lipids are those listed in Table 1) were added to the cell culture medium in a 96-well plate. After 24 hours of continued culture, 10 μL of CCK-8 solution was added to each well, and the culture plate was incubated in an incubator for 1 hour.

The next data set concerns female BALB/C mice. The experiment in a line: Expression of delivered mRNA in mice in vivo (IVIS in vivo imaging). Particulars: 10 μg Fluc-mRNA via tail vein. How it is done: LNP preparations containing 10 μg of Fluc-mRNA were injected via the tail vein into female BALB/C mice (4 to 6 weeks old, weighing 17 to 19 g). At specified time points after administration (6 h, 24 h, 48 h, and 7 d), the mice were intraperitoneally injected with fluorescent imaging substrates and allowed to move freely for 5 minutes. The average radiation intensity (corresponding to fluorescence intensity) of proteins expressed by the mRNA delivered by the LNP preparations in the mice in vivo was then detected using the IVIS Spectrum small-animal in vivo imaging system.

Structures are written as SMILES.

In data set [1], `CCCCCCCCC(CCCCCC)COC(=O)CCCCCN(CCCCCC(=O)OCC(CCCCCC)CCCCCCCC)CCN(CCO)c1ccccc1` (stereo not drawn) [Compound 7, bis(2-hexyldecyl) 6,6′-((2-((2-hydroxyethyl) (phenyl)amino)ethyl)azanediyl)dihexanoate, reference compound] returned a PDI of 14.3%. The Particle size in data set [1] was 162 nm. The “Relative light unit (RLU)” value in the data set on 293T cells [2] came to 257490 RLU. In the data set on 293T cells [3], this compound gave a Cell viability of 73%. In addition, the “Average radiation intensity, in vivo imaging” value in the data set on female BALB/C mice (6 h) is on record as 1847654; with female BALB/C mice (24 h) it was 185473; with female BALB/C mice (48 h), 96543; in the data set on female BALB/C mice (7 d), 8511.

`CCCCCCCCCCCCC(O)CN(C)CCCCCC(=O)OCC(CCCCCC)CCCCCCCC` (stereo not drawn) [HHMA, reference compound]: in data set [1], the PDI is given as 16.3% and the Particle size is 146 nm. For the same compound, the “Relative light unit (RLU)” value in the data set on 293T cells [2] amounted to 1011156 RLU. The Cell viability in the data set with 293T cells [3] is 77%.

Regarding `CCCCCCCCC(CCCCCC)COC(=O)CCCCCN(CCCCCC(=O)OCC(CCCCCC)CCCCCCCC)CCCCC(=O)OCc1ccccc1.I` (stereo not drawn) [I-1, bis(2-hexyldecyl) 6,6′-((5-(benzyloxy)-5-oxopentyl)azanediyl)dihexanoate, reference compound], in data set [1], the PDI is 16.2% and the Particle size was 158 nm. For the same compound, the “Relative light unit (RLU)” value in the data set on 293T cells [2] came to 202730 RLU. The same compound showed a Cell viability in the data set with 293T cells [3] of 68%.

Take `CCCCC/C=C\C/C=C\CCCCCCCCC(CCCCCCCC/C=C\C/C=C\CCCCC)OC(=O)CCCN(C)C` [MC3, reference compound]: in data set [1], the PDI came out at 15.7% and the Particle size worked out at 151 nm. In the data set with 293T cells [2], the “Relative light unit (RLU)” value turned out to be 94904 RLU. In addition, in the data set on 293T cells [3], the Cell viability was determined as 74%.

In data set [1], `CCCCCCCCCCC(CCCCCCCCCC)CCCOC(=O)CCCCCNC(CO)(CO)CCc1ccc(CCCCCCCC)cc1` [YK-901, 4-decyltetradecyl 6-((1-hydroxy-2-(hydroxymethyl)-4-(4-octylphenyl)butan-2-yl)amino) hexanoate] showed a PDI of 17.4% and a Particle size of 162 nm. For the same compound, in the data set on 293T cells [2], the “Relative light unit (RLU)” value is listed as 43423 RLU. In the data set with 293T cells [3], this compound came in with a Cell viability of 58%.

In data set [1], `CCCCCCCCCCC(CCCCCCCCCC)CCCOC(=O)CCCNC(CO)(CO)CCc1ccc(CCCCCCCC)cc1` [YK-902, 4-decyltetradecyl 4-((1-hydroxy-2-(hydroxymethyl)-4-(4-octylphenyl)butan-2-yl)amino) butanoate] registered a PDI of 12.4% and a Particle size of 142 nm. Besides, the “Cellular transfection efficiency, times that of HHMA” value in the data set on 293T cells [2] (Fluc-mRNA LNP, vs HHMA) came to 0.31 times. The “Cellular transfection efficiency, times that of I-1” value in the data set on 293T cells [2] (Fluc-mRNA LNP, vs I-1) is 1.53 times. Moreover, the “Cellular transfection efficiency, times that of MC3” value in the data set on 293T cells [2] (Fluc-mRNA LNP, vs MC3) is given as 3.28 times. In the data set with 293T cells [2] (Fluc-mRNA LNP, vs SM-102), the “Cellular transfection efficiency, times that of SM-102” value amounted to 0.22 times. Besides, the “Cellular transfection efficiency, times that of YK-501” value with 293T cells [2] (Fluc-mRNA LNP, vs YK-501) amounted to 6.73 times. The “Cellular transfection efficiency, times that of YK-506” value in the data set on 293T cells [2] (Fluc-mRNA LNP, vs YK-506) worked out at 0.48 times. Further, the “Cellular transfection efficiency, times that of compound 7” value with 293T cells [2] (Fluc-mRNA LNP, vs compound 7) was 1.21 times. Moreover, the “Relative light unit (RLU)” value in the data set on 293T cells [2] is recorded as 311132 RLU. This compound yielded a Cell viability with 293T cells [3] of 36%.

Take `CCCCCCCCCCOC(=O)CCCNC(CO)(CO)CCc1ccc(CCCCCCCC)cc1` [YK-903, decyl 4-((1-hydroxy-2-(hydroxymethyl)-4-(4-octylphenyl)butan-2-yl)amino) butanoate]: in data set [1], the PDI worked out at 15.1% and the Particle size came to 152 nm. In addition, in the data set with 293T cells [2], the “Relative light unit (RLU)” value is listed as 25006 RLU. In the data set with 293T cells [3], this compound had a Cell viability of 47%.

`CCCCCCCCCCCOC(=O)CCCCCCNC(CO)(CO)CCc1ccc(CCCCCCCC)cc1` [YK-904, undecyl 7-((1-hydroxy-2-(hydroxymethyl)-4-(4-octylphenyl)butan-2-yl)amino) heptanoate]: the PDI in data set [1] came to 8.2%. The Particle size in data set [1] stood at 112 nm. The “Relative light unit (RLU)” value with 293T cells [2] is reported as 125048 RLU. In the data set with 293T cells [3], the Cell viability is given as 52%. Also, the “Average radiation intensity, in vivo imaging” value stood at 1116384 in the data set with female BALB/C mice (6 h), 115355 with female BALB/C mice (24 h), 28552 in the data set on female BALB/C mice (48 h) and 3243 with female BALB/C mice (7 d).

`CCCCCCCCCCCOC(=O)CCCCCNC(CO)(CO)CCc1ccc(CCCCCCCC)cc1` [YK-905, undecyl 6-((1-hydroxy-2-(hydroxymethyl)-4-(4-octylphenyl)butan-2-yl)amino) hexanoate]: in data set [1], the PDI is given as 16.9% and the Particle size came out at 135 nm. Also, the “Relative light unit (RLU)” value in the data set with 293T cells [2] amounted to 72425 RLU. The Cell viability in the data set with 293T cells [3] stood at 51%.

Consider `CCCCCCCCCCOC(=O)CCCN(CCCCCC(=O)OCC(CCCCCCCC)CCCCCCCC)CCNC(CO)(CO)CCc1ccc(CCCCCCCC)cc1` [YK-906, 2-octyldecyl 6-((4-(decyloxy)-4-oxobutyl) (2-((1-hydroxy-2-(hydroxymethyl)-4-(4-octylphenyl)butan-2-yl)amino)ethyl)amino) hexanoate], for which, in data set [1], the PDI came to 10.2% and the Particle size was determined as 124 nm. Further, the “Relative light unit (RLU)” value with 293T cells [2] is given as 27546 RLU. In the data set with 293T cells [3], this compound showed a Cell viability of 63%.

In data set [1], `CCCCCCCCCCCCCCNC(=O)CCCCCNC(CO)(CO)CCc1ccc(CCCCCCCC)cc1` [YK-907, 6-((1-hydroxy-2-(hydroxymethyl)-4-(4-octylphenyl)butan-2-yl)amino)-N-tetradecylhexanamide] returned a PDI of 16.2% and a Particle size of 159 nm. The “Relative light unit (RLU)” value in the data set with 293T cells [2] was found to be 37699 RLU. The compound further had a Cell viability in the data set on 293T cells [3] of 73%.

For `CCCCCCCCc1ccc(CCC(CO)(CO)NCCCCCCC(=O)OCC(CCCCCCCC)CCCCCCCC)cc1` [YK-911, 2-octyldecyl 7-((1-hydroxy-2-(hydroxymethyl)-4-(4-octylphenyl)butan-2-yl)amino) heptanoate], in data set [1], the PDI was 10.4% and the Particle size stood at 136 nm. Moreover, the “Relative light unit (RLU)” value with 293T cells [2] turned out to be 1299055 RLU. For the same compound, the Cell viability with 293T cells [3] was found to be 62%.
